Where a SMILES comes first, the peptide text is derived from it. Bridges are numbered along the chain shown (N, C = ends).
Legend:
human SSTR2 = molecular target: T1, human SSTR2 (Homo sapiens, UniProt P30874); assay: cAMP accumulation inhibiting activity in SSTR2 expressing CHO cells (forskolin stimulated); assay type: cell-based; conditions: forskolin 10 μM, CHO cells SSTR2-HS5-9; read-out: ED50, inhibition of intracellular cAMP accumulation, SSTR2
T1 construct: expressed in transfected cells; host or cells: CHO(dhfr-) cells, clone SSTR2-HS5-9, plasmid pAC01 (vector pAKKO-111)
Experimental: (§1) For measuring the intracellular accumulations of cyclic adenosine 3′,5′-monophosphate (cAMP), the human somatostatin receptor expressing cell lines SSTR2-HS5-9, SSTR3-15-19, SSTR4-1-2 and SSTR5-32-4 respectively described in Reference Example 2 (3), Reference Example 3 (3), Reference Example 4 (3) and Reference Example 5 (3) were multiplied on 24-well plates until confluency. Said cells were washed with two 1-ml portions of medium A [Dulbecco-'s modified Eagle's medium (DMEM), 20 mM 2-[4-(2-hydroxyethyl)-1-piperazinyl]ethanesulfonic acid (HEPES) (pH. 7.5), 0.2% BSA, 0.2 mM 3-isobutyl-1-methylxanthine (IBMX)] and then 400 μl of medium A was added to each well and incubation was carried out at 37° C. for 1 hour. To each well were added 50 μl of a hCS-15 or hCS-17 solution (each diluted to a concentration 10 times the final concentration with medium A) and 50 μl of a forskolin solution (final concentration: 10 μM), and incubation was carried out at 37° C. for 30 minutes. The cells were washed with two 1-ml portions of medium A and then 500 μl of medium A and 100 μL of 20% aqueous perchloric acid solution were added to each well, followed by standing at 4° C. for 20 minutes for cell lysis. […] The amount of cAMP contained in this extract was determined using an Amersham's kit (cAMP EIA system).

human SSTR4 = molecular target: T2, human SSTR4 (Homo sapiens, UniProt P31391); assay: cAMP accumulation inhibiting activity in SSTR4 expressing CHO cells (forskolin stimulated); assay type: cell-based; conditions: forskolin 10 μM, CHO cells SSTR4-1-2; read-out: ED50, inhibition of intracellular cAMP accumulation, SSTR4
T2 construct: expressed in transfected cells; host or cells: CHO(dhfr-) cells, clone SSTR4-1-2, plasmid pA-1-11-SSTR4 (vector pAKKO-111)
Experimental: as §1

T1 sequence (P30874 whole entry): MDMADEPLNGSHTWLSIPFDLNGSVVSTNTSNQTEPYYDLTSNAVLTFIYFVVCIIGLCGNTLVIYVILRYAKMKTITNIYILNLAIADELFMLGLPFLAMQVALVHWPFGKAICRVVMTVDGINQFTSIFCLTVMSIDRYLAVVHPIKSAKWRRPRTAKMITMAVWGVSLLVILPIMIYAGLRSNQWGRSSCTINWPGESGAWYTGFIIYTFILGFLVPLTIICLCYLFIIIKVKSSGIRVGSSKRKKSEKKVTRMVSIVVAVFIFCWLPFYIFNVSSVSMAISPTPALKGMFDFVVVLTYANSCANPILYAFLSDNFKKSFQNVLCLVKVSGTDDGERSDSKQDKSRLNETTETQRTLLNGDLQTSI
T2 sequence (P31391 whole entry): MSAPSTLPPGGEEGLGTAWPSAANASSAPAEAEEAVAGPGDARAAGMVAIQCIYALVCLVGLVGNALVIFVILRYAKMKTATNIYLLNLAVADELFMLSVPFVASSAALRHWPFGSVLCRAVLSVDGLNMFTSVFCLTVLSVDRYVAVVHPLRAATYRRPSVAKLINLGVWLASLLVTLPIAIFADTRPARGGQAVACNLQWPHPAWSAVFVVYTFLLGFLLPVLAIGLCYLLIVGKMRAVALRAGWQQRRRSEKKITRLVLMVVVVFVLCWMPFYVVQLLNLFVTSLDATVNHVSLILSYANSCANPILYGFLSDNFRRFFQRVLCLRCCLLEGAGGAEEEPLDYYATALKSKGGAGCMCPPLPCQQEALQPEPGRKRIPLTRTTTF

EC50 (human SSTR2): 7 nM
EC50 (human SSTR4): 0.2 nM
SMILES: CSCC[C@H](N)C(=O)N1CCC[C@H]1C(=O)N[C@H]1CSSC[C@@H](C(=O)N[C@@H](CCCCN)C(=O)O)NC(=O)[C@H](CO)NC(=O)[C@H](CO)NC(=O)[C@H](Cc2ccccc2)NC(=O)[C@H]([C@@H](C)O)NC(=O)[C@H](CCCCN)NC(=O)[C@H](Cc2c[nH]c3ccccc23)NC(=O)[C@H](Cc2ccccc2)NC(=O)[C@H](Cc2ccccc2)NC(=O)[C@H](CC(N)=O)NC(=O)[C@H](CCCNC(=N)N)NC1=O [hCS-15] (H-MPCRNFFWKTFSSCK-OH; disulfide 3-14; N-terminus and C-terminus assumed)
